Each compound was assayed on NIH3T3 viability, CellTiter-Glo ATP luminescence (assay: cytotoxicity in NIH3T3 fibroblasts, dose response, cytotoxicity control for HSP40 inhibitor project, cell-based, CellTiter-Glo luminescence, cherry-pick, set 2 (AID 624265);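 also: cells exposed to compound for 48 hours before the ATP read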).
With `COc1cccc(/C=N/Nc2ncnc(Cl)c2N)c1O` the AC35 was 47.2 µM. For `Oc1ccc(N=Nc2ccc3c(c2)OCCO3)c2cccnc12`, the AC35 was 50.2 µM. With `CCc1cc(SC#N)cc(C)c1NC(=O)CCl` the AC35 was 49.6 µM. In the case of `Cc1[nH]n(-c2ccccc2)c(=O)c1/C=N/Nc1nncc(-c2ccccc2)n1`, the AC35 is reported as 19.5 µM. For `CCCCOC(=O)/C=C/c1ccc(OC(=O)OC)c(OC(=O)OC)c1`, the AC35 was 50.7 µM. For `Oc1c(C(Nc2cccc(C(F)(F)F)c2)c2ccncc2)ccc2cccnc12` (configuration not stated), the AC35 was 48.9 µM. `Nc1cc2nc3ccccc3oc-2cc1=O` gave an AC35 of 28 µM. `Cc1c(Cc2ccccc2)c(NCCN(C)C)n2c(nc3ccccc32)c1C#N` gave an AC35 of 16.3 µM. Compound `CCC(=O)NC(c1ccco1)c1cc(Cl)c2cccnc2c1O` (configuration not stated) has an AC35 of 49.1 µM. `CC(C)N1CCN(c2ccc(OCC3COC(Cn4cncn4)(c4ccc(Cl)cc4Cl)O3)cc2)CC1` (configuration not stated) was tested, and the AC35 was 12.4 µM. In the case of `CN(C)c1ccc(C=c2c3ccccc3n3c2c2c([n+]3C)CCCC2)cc1`, the AC35 is reported as 33.3 µM. Compound `O=CC1=C(c2ccccc2)Oc2ccccc2O1` has an AC35 of 47.5 µM. For `Oc1ccc(/C=N/Nc2ccc(C(F)(F)F)cn2)c(O)c1`, the AC35 was 43.9 µM. `C=C1C(=O)C23CCC4C(C)(C(=O)OC)CCCC4(C)C2CCC1(O)C3` (configuration not stated) showed an AC35 of 10.1 µM. `CN(Cc1ccc(Cl)s1)C(=O)CCl` showed an AC35 of 25 µM. For `CCCCNc1c(-c2cccc(Sc3ccc(OC)cc3)c2)nc2ccccn12`, the AC35 was 39.2 µM. Compound `CC(C)N1CCN(c2ccc(OC[C@H]3CO[C@](Cn4cncn4)(c4ccc(Cl)cc4Cl)O3)cc2)CC1` has an AC35 of 30.8 µM.

Reference: PubChem BioAssay AID624265 (Broad Institute, 2012)
